Like-named read-outs stand apart in the source and are kept apart here.
What was measured:
[1] = test system: A. baumannii KW1 strains with aminoglycoside resistance plasmids; test: Etest MIC of aminoglycosides, aminoglycoside-modifying enzyme or 16S rRNA methylase (Table 19); type: cell-based, Acinetobacter baumannii; conditions: production of aminoglycoside-modifying enzymes
Procedure: (§1) DNA fragments of the resistance genes along with their flanking regions were amplified from clinical plasmids via PCR with specific primer pairs. The resulting PCR fragments were digested and then cloned into the plasmid pYMAb5 or pYMAb5Tc. The resulting plasmids were then transformed into A. baumannii KW1 via electroporation.
(§2) The MICs of antibiotics were determined using the Etest (Biodisk AB, Sweden) according to the manufacturer's instructions. The MICs from the Etest, which fall between standard two-fold dilutions, were rounded up to the next highest two-fold value. The MICs of ceftazidime and cefotaxime against K. pneumoniae NVT1001 harbouring the pACYC177 plasmid with blaOXA-48 were further determined using a broth microdilution test according to the recommendations of the CLSI,^25 and the results were interpreted according to the breakpoints established by the CLSI in 2017.^25 Meanwhile, due to the lack of CLSI breakpoints in 2016 and 2017, the results for cephalothin were interpreted according to the breakpoints established by the CLSI in 2015,^26 and the results for moxifloxacin were interpreted according to the breakpoints established by the EUCAST in 2017.^27

[2] = test system: K. pneumoniae NVT1001 and its ΔompK35/36 and/or ΔramR mutants; test: Etest MIC, OmpK35/36 loss and AcrAB-TolC overexpression (ΔramR) strains (Table 6); type: cell-based, Klebsiella pneumoniae; conditions: Klebsiella pneumoniae
Procedure: as §2

[3] = test system: K. pneumoniae NVT1001 strains with Sul/Dfr plasmids; test: Etest MIC of folate pathway inhibitors, OmpK35/36 loss, ΔramR and/or drug-resistant target enzyme (Table 15); type: cell-based, Klebsiella pneumoniae; conditions: for MIC: Klebsiella pneumoniae
Procedure: DNA fragments of the resistance genes along with their flanking regions were amplified from clinical plasmids via PCR with specific primer pairs. The resulting PCR fragments were digested and then cloned into the plasmid pACYC177 or pACYC184. The resulting plasmids were then transformed into K. pneumoniae strain NVT1001 via electroporation. The recombinant bacteria were plated onto LB agar plates containing kanamycin (50 mg/L) or chloramphenicol (50 mg/L), and the presence of the cloned gene was confirmed via PCR and DNA sequencing.
as §2

[4] = test system: K. pneumoniae NVT1001 ΔramRΔompK35/36 mutant and its revertants; test: Etest MIC, ΔramRΔompK35/36 mutant and its revertants (Table 7); type: cell-based; conditions: Klebsiella pneumoniae
Text: The allelic-exchange method was used to restore the wild-type gene in the K. pneumoniae NVT1001 mutants with constructed chromosome-mediated resistance mechanisms, as described by Tsai et al.^19 Briefly, a DNA fragment of the entire wild-type gene sequence along with flanking regions was amplified from K. pneumoniae NVT1001 using PCR with specific primers. The resulting PCR fragment was digested and then cloned into pUT-KB. For homologous recombination, this plasmid was transformed into E. coli S17-1 λpir^23 via electroporation and mobilized into the K. pneumoniae NVT1001 mutant via conjugation. […] After incubation in 20 mL BHI broth for 6 hours at 37° C. in the absence of kanamycin, the fully grown cultures were spread onto LB agar plates supplemented with 10% sucrose. After the double crossover occurred, the sucrose-resistant and kanamycin-susceptible colonies were selected, and the restoration of the wild-type gene was confirmed via DNA sequencing.
as §2

[5] = test system: A. baumannii KW1 strains with β-lactamase plasmids; test: Etest MIC of β-lactams, extended-spectrum β-lactamase, AmpC β-lactamase or carbapenemase (Table 18); type: cell-based, Acinetobacter baumannii
Procedure: as §1, §2

[6] = ΔramRΔ35/36, ΔramRΔompK35/36 mutant

CCN[C@@H]1C[C@H](N)[C@@H](O[C@H]2OC(CN)=CC[C@H]2N)[C@H](O)[C@H]1O[C@H]1OC[C@](C)(O)[C@H](NC)[C@H]1O [Netilmicin]
no increase effects: effects on the MIC [1]
0.5 µg/mL: MIC ([2]; WT, NVT1001, read-out: MIC) | MIC ([2]; Δ35, ΔompK35 mutant) | MIC ([2]; Δ35/36, ΔompK35/36 mutant) | MIC ([2]; Δ36, ΔompK36 mutant) | MIC ([2]; ΔramR mutant) | MIC [2, 6] | MIC ([2]; ΔramRΔ36, ΔramRΔompK36 mutant)
0.25 µg/mL: MIC ([2]; ΔramRΔ35, ΔramRΔompK35 mutant)

COc1cc(Cc2cnc(N)nc2N)cc(OC)c1OC [Trimethoprim]
4 µg/mL: MIC ([3]; Sul1 on pACYC177, ΔompK35/36 mutant) | MIC ([3]; Sul2 on pACYC177, ΔompK35/36 mutant) | MIC ([3]; Sul2 on pACYC177, ΔompK35 mutant) | MIC ([3]; Sul2 on pACYC177, ΔompK36 mutant)
no significant (≥4-fold) effects: effects on the MIC ([3]; strains with porin loss and/or Sul production)
8 µg/mL: MIC ([3]; no supplemental plasmid, ΔramR mutant) | MIC ([3]; no supplemental plasmid, ΔramRΔompK35 mutant) | MIC ([4]; ΔramRΔompK35/36::ompK35/36 revertant) | MIC ([4]; ΔramRΔompK35/36::ompK35 revertant) | MIC ([4]; ΔramRΔompK35/36::ompK36 revertant) | MIC ([2]; ΔramR mutant) | MIC ([2]; ΔramRΔ35, ΔramRΔompK35 mutant)
2 µg/mL: MIC ([3]; Sul1 on pACYC177, WT (NVT1001), read-out: MIC) | MIC ([3]; Sul1 on pACYC177, ΔompK35 mutant) | MIC ([3]; Sul1 on pACYC177, ΔompK36 mutant) | MIC ([3]; Sul2 on pACYC177, WT (NVT1001), read-out: MIC) | MIC ([3]; no supplemental plasmid, WT (NVT1001), read-out: MIC) | MIC ([3]; no supplemental plasmid, ΔompK35/36 mutant) | MIC ([3]; no supplemental plasmid, ΔompK35 mutant) | MIC ([3]; no supplemental plasmid, ΔompK36 mutant) | MIC ([4]; ΔramRΔompK35/36::ramR revertant) | MIC ([4]; ΔramRΔompK35/36::ramR::ompK35/36 revertant) | MIC ([4]; ΔramRΔompK35/36::ramR::ompK35 revertant) | MIC ([4]; ΔramRΔompK35/36::ramR::ompK36 revertant) | MIC ([2]; WT, NVT1001, read-out: MIC) | MIC ([2]; Δ35, ΔompK35 mutant) | MIC ([2]; Δ35/36, ΔompK35/36 mutant) | MIC ([2]; Δ36, ΔompK36 mutant)
> 32 µg/mL: MIC ([3]; DfrA1 on pACYC177, WT (NVT1001), read-out: MIC) | MIC ([3]; DfrA1 on pACYC177, ΔompK35/36 mutant) | MIC ([3]; DfrA1 on pACYC177, ΔompK35 mutant) | MIC ([3]; DfrA1 on pACYC177, ΔompK36 mutant) | MIC ([3]; DfrA1 on pACYC177, ΔramR mutant) | MIC ([3]; DfrA1 on pACYC177, ΔramRΔompK35/36 mutant) | MIC ([3]; DfrA1 on pACYC177, ΔramRΔompK35 mutant) | MIC ([3]; DfrA1 on pACYC177, ΔramRΔompK36 mutant) | MIC ([3]; DfrA16 on pACYC177, WT (NVT1001), read-out: MIC) | MIC ([3]; DfrA16 on pACYC177, ΔompK35/36 mutant) | MIC ([3]; DfrA16 on pACYC177, ΔompK35 mutant) | MIC ([3]; DfrA16 on pACYC177, ΔompK36 mutant) | MIC ([3]; DfrA16 on pACYC177, ΔramR mutant) | MIC ([3]; DfrA16 on pACYC177, ΔramRΔompK35/36 mutant) | MIC ([3]; DfrA16 on pACYC177, ΔramRΔompK35 mutant) | MIC ([3]; DfrA16 on pACYC177, ΔramRΔompK36 mutant) | MIC ([3]; Sul1 on pACYC177, ΔramRΔompK35/36 mutant) | MIC ([3]; Sul1 on pACYC177, ΔramRΔompK36 mutant) | MIC ([3]; Sul2 on pACYC177, ΔramRΔompK35/36 mutant) | MIC ([3]; no supplemental plasmid, ΔramRΔompK35/36 mutant) | MIC ([4]; ΔramRΔompK35/36 mutant) | MIC [2, 6]
16 µg/mL: MIC ([3]; Sul1 on pACYC177, ΔramR mutant) | MIC ([3]; Sul2 on pACYC177, ΔramR mutant) | MIC ([3]; no supplemental plasmid, ΔramRΔompK36 mutant) | MIC ([2]; ΔramRΔ36, ΔramRΔompK36 mutant)
32 µg/mL: MIC ([3]; Sul1 on pACYC177, ΔramRΔompK35 mutant) | MIC ([3]; Sul2 on pACYC177, ΔramRΔompK35 mutant) | MIC ([3]; Sul2 on pACYC177, ΔramRΔompK36 mutant)

C[C@@H](O)[C@H]1C(=O)N2C(C(=O)O)=C(S[C@@H]3CN[C@H](C(=O)Nc4cccc(C(=O)O)c4)C3)[C@H](C)[C@H]12 [ETP]
3 µg/mL: MIC ([5]; KW1, no supplemental plasmid) | MIC ([5]; KW1 with VEB-3 on pYMAb5) | MIC ([5]; KW1 with shuttle vector pYMAb5)
12 µg/mL: MIC ([5]; KW1 with CTX-M-15 on pYMAb5)
>32 µg/mL: MIC ([5]; KW1 with ADC-30 on pYMAb5) | MIC ([5]; KW1 with IMP-1 on pYMAb5) | MIC ([5]; KW1 with NDM-1 on pYMAb5) | MIC ([5]; KW1 with OXA-23 on pYMAb5) | MIC ([5]; KW1 with OXA-58 on pYMAb5) | MIC ([5]; KW1 with OXA-66 on pYMAb5) | MIC ([5]; KW1 with OXA-72 on pYMAb5) | MIC ([5]; KW1 with VIM-1 on pYMAb5)

C[C@@H](O)[C@H]1C(=O)N2C(C(=O)O)=C(S[C@@H]3CN[C@H](CNS(N)(=O)=O)C3)[C@H](C)[C@H]12 [DOR]
8 µg/mL: MIC ([5]; KW1 with OXA-66 on pYMAb5)
>32 µg/mL: MIC ([5]; KW1 with NDM-1 on pYMAb5) | MIC ([5]; KW1 with OXA-23 on pYMAb5) | MIC ([5]; KW1 with OXA-72 on pYMAb5) | MIC ([5]; KW1 with VIM-1 on pYMAb5)
6 µg/mL: MIC ([5]; KW1 with OXA-58 on pYMAb5)
1.5 µg/mL: MIC ([5]; KW1 with CTX-M-15 on pYMAb5)
0.38 µg/mL: MIC ([5]; KW1, no supplemental plasmid) | MIC ([5]; KW1 with VEB-3 on pYMAb5) | MIC ([5]; KW1 with shuttle vector pYMAb5)
4 µg/mL: MIC ([5]; KW1 with ADC-30 on pYMAb5)
16 µg/mL: MIC ([5]; KW1 with IMP-1 on pYMAb5)
